The text below walks through data of patent US20080221110A1 (priority 2005, published 2008).

The test has as its system a strain of at least one of the organisms listed (panel of Gram-positive organisms and Gram-negative strains). The test is described as follows: organism not typed. In kind it is cell-based. To be noted: read-out: MIC (minimum inhibitory concentration).

For the molecule `O=c1ccc2ccc(F)c3c2n1CC3CN1CCC(NC[C@H]2COc3ccnnc3O2)CC1` (mixture of isomers) [Example 62, (1R/S)-1-[(4-{[(7S)-6,7-dihydro[1,4]dioxino[2,3-c]pyridazin-7-ylmethyl]amino}-1-piperidinyl)methyl]-9-fluoro-1,2-dihydro-4H-pyrrolo[3,2,1-ij]quinolin-4-one], the MIC is at most 4 µg/mL.
